Measurements reported in patent publication US9752168B2, “Compositions comprising a polypeptide having cellulolytic enhancing activity and a quinone compound and uses thereof” (priority 2010, dated 2017).
Like-named read-outs stand apart in the source and are kept apart here.

Assays:
[1] = system: Trichoderma reesei cellulase composition; assay: Hydrolysis of AVICEL® (microcrystalline cellulose) by the T. reesei cellulase composition; settings: for quinone compound effect(no GH61) (ratio, Equation 2): AVICEL®; for Percent conversion of AVICEL®: no quinone compound, cellulase 4 mg protein/g cellulose, GH61 polypeptide where present 0.4 mg/g cellulose (10% w/w of cellulase)
[2] = system: Trichoderma reesei cellulase composition; settings: milled unwashed PCS; 5 mM quinone; 1, 3, and 7 days (white bars)
[3] = system: Trichoderma reesei cellulase composition; settings: milled washed PCS
[4] = system: Thielavia terrestris GH61E polypeptide; format: biochemical; settings: AVICEL®, T. terrestris GH61E 0.4 or 2 mg per ml
[5] = system: Penicillium pinophilum GH61A polypeptide; format: biochemical; settings: P. pinophilum GH61A 0.4 or 2 mg per ml
[6] = biological target: Aspergillus fumigatus GH61B polypeptide (Aspergillus fumigatus, UniProt Q4WP32); format: biochemical; settings: A. fumigatus GH61B 0.4 or 2 mg per ml
[7] = system: Talaromyces stipitatus GH61 polypeptide; format: biochemical; settings: T. stipitatus GH61 0.4 or 2 mg per g cellulose
[8] = biological target: A. oryzae CEL3A beta-glucosidase (Aspergillus oryzae, UniProt Q2UUD6); format: biochemical; settings: 96 hours at 50° C.
[9] = system: A. oryzae CEL3A beta-glucosidase; format: biochemical; settings: 96 hours at 50° C.
[10] = 5 mM quinone, 1, 3, and 7 days (white bars)
[11] = AVICEL®, 5 mM quinone present, days 3 and 7
[12] = AVICEL®, 5 mM quinone, day 1 and 3
[13] = quinone added to A. oryzae CEL3A beta-glucosidase (10 mg/g cellulose), no GH61A
[14] = quinone with T. aurantiacus GH61A polypeptide (10 mg/g cellulose) and A. oryzae CEL3A beta-glucosidase (10 mg/g cellulose)
[15] = component added alone, beta-glucosidase or GH61A 10 mg protein per g cellulose, adrenochrome […] w/w, 4-tert-butyl-5-methoxy-1,2-benzoquinone 0.15% w/w
[16] = quinone with T. aurantiacus GH61A polypeptide (10 mg/g cellulose), no beta-glucosidase

Sequence of Aspergillus fumigatus GH61B polypeptide (Q4WP32 22-250): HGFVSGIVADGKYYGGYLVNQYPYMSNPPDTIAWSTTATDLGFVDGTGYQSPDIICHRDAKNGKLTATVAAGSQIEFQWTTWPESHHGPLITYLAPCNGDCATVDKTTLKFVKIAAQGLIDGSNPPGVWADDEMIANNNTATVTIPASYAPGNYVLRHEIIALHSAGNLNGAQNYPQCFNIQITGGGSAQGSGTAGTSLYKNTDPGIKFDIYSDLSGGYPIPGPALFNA

O=C1c2ccccc2C(=O)c2c(O)ccc(O)c21
quinone compound effect(no GH61) (ratio, Equation 2) ([1]; 1 mM quinone, 3 days of hydrolysis): 0.932±0.0123
quinone compound effect(no GH61) (ratio, Equation 2) ([1]; 1 mM quinone, 7 days of hydrolysis): 1.01±0.0120

O=C1C=C(O)C(=O)c2ccccc21
quinone compound effect(no GH61) (ratio, Equation 2) ([1]; 1 mM quinone, FIG. 1E white bars): less than 1

COC1=C(OC)C(=O)C(C)=CC1=O
quinone compound effect(no GH61) (ratio, Equation 2) [2]: greater than 1
quinone compound effect(no GH61) (ratio, Equation 2) ([1]; 5 mM quinone, day 3 and 7): less than 1
quinone compound effect(no GH61) (ratio, Equation 2) ([1]; 10 mM quinone, 1 and 3 days): less than 1
quinone compound effect(no GH61) (ratio, Equation 2) ([3]; 10 mM quinone, 1 and 3 days, cellulase 2 mg per g cellulose): less than 1

O=C1C=CC(=O)C=C1 [1,4-benzoquinone]
quinone compound effect(no GH61) (ratio, Equation 2) [1, 10]: less than 1

O=C1C=CC(=O)c2ccccc21 [1,4-naphthoquinone]
quinone compound effect(no GH61) (ratio, Equation 2) [1, 10]: less than 1
quinone compound effect(no GH61) (ratio, Equation 2) [3, 10]: less than 1

CC1=CC(=O)C=CC1=O [2-methyl-1,4-benzoquinone]
quinone compound effect(no GH61) (ratio, Equation 2) [1, 10]: less than 1
GH61 effect (ratio, Equation 4) ([4]; 5 mM quinone present, days 3 and 7): greater than 1
quinone compound effect(+GH61) (ratio, Equation 3) ([4]; 5 mM quinone, day 7): less than 1
Day 7 hydrolysis of AVICEL® in the presence of quinone and GH61 polypeptide ([5]; 5 mM quinone, day 7): not significantly impacted
GH61 effect (ratio, Equation 4) [5, 11]: greater than 1
quinone compound effect(+GH61) (ratio, Equation 3) [5, 12]: less than 1
Day 7 hydrolysis of AVICEL® in the presence of quinone and GH61 polypeptide ([6]; 5 mM quinone, day 7): not significantly impacted
GH61 effect (ratio, Equation 4) [6, 11]: greater than 1
quinone compound effect(+GH61) (ratio, Equation 3) [6, 12]: less than 1
Day 7 hydrolysis of AVICEL® in the presence of quinone and GH61 polypeptide ([7]; 5 mM quinone, day 7): not significantly impacted
GH61 effect (ratio, Equation 4) [7, 11]: greater than 1
quinone compound effect(+GH61) (ratio, Equation 3) [7, 12]: less than 1

COC1=CC(=O)C(=O)C=C1C(C)(C)C [4-tert-butyl-5-methoxy-1,2-benzoquinone]
conversion of PASC [8, 13]: 1.6±0.1%
conversion of PASC [8, 14]: 29.9±3.2%
conversion of PASC [9, 15]: no significant conversion
conversion of PASC [9, 16]: 0.8±0.6%

CN1CC(O)C2=CC(=O)C(=O)C=C21 (stereo not shown) [adrenochrome, 3-hydroxy-1-methyl-5,6-indolinedione]
conversion of PASC [8, 13]: 0.3±0.3%
conversion of PASC [8, 14]: 8.5±2.0%
conversion of PASC [9, 15]: no significant conversion
conversion of PASC [9, 16]: 0.1±0.1%

B1: P. pinophilum GH61A polypeptide: GH61A polypeptide having cellulolytic enhancing activity (SEQ ID NO: 32), recombinantly prepared according to WO 2011/005867 (protein, listed as Penicillium pinophilum)
chain: MPSTKVAALSAVLALASTVAGHGFVQNIVIDGKSYSGYLVNQFPYESNPPAVIGWATTATDLGFVAPSEYTNADIICHKNATPGALSAPVAAGGTVELQWTTWPDSHHGPVISYLANCNGNCSTVDKTKLDFVKIDQGGLIDDTTPPGTWASDKLIAANNSWTVTIPSTIAPGNYVLRHEIIALHSAGNADGAQNYPQCINLEITGSGTAAPSGTAGEKLYTSTDPGILVNIYQSLSTYVIPGPTLWSGAANGAVATGSATAVATTATASATATPTTLVTSVAPASSTFATAVVTTVAPAVTDVVTVTDVVTVTTVITTTVL
Percent conversion of AVICEL® ([1]; 1 day): 14.1±0.4%
Percent conversion of AVICEL® ([1]; 3 days): 28.5±0.5%
Percent conversion of AVICEL® ([1]; 7 days): 46±2%

B2: T. stipitatus GH61 polypeptide: GH61 polypeptide having cellulolytic enhancing activity (SEQ ID NO: 164), recombinantly prepared as described in Example 3 (protein, listed as Talaromyces stipitatus)
chain: MPSTKVAALSAVLALASTVAGHGFVQNIVIDGKSYTGYLVNQYPYQSNPPAVIGWSTTATDLGFVDGSGYTNPDIICHKNAKPGQLSAPVAAGGKVELEWTTWPESHHGPVISYLANCNGDCTTVDKTKLEFVKIDQRGLIDDSNPPGTWAADQLIAANNSWTVTIPESIAPGNYVLRHEIIALHSANNATGAQNYPQCINLQITGSGTANPSGTPGEKLYTPTDPGILVNIYQSLSSYVIPGPTLWSGAAAHVVATAAGSATGVASATATPTTLVTAVSSPTGAPSVVTPEAPSVTSFAPVVTVTDVVTVTTVITTTIS
Percent conversion of AVICEL® ([1]; 1 day): 13.6±0.4%
Percent conversion of AVICEL® ([1]; 3 days): 27.9±0.2%
Percent conversion of AVICEL® ([1]; 7 days): 44.7±0.5%

B3: T. terrestris GH61E polypeptide: GH61E polypeptide having cellulolytic enhancing activity (SEQ ID NO: 8), recombinantly prepared according to WO 2005/074647 A2 (protein, listed as Thielavia terrestris)
chain: MLANGAIVFLAAALGVSGHYTWPRVNDGADWQQVRKADNWQDNGYVGDVTSPQIRCFQATPSPAPSVLNTTAGSTVTYWANPDVYHPGPVQFYMARVPDGEDINSWNGDGAVWFKVYEDHPTFGAQLTWPSTGKSSFAVPIPPCIKSGYYLLRAEQIGLHVAQSVGGAQFYISCAQLSVTGGGSTEPPNKVAFPGAYSATDPGILINIYYPVPTSYQNPGPAVFSC
Percent conversion of AVICEL® ([1]; 1 day): 14.7±0.3%
Percent conversion of AVICEL® ([1]; 3 days): 29.2±0.4%
Percent conversion of AVICEL® ([1]; 7 days): 49.3±0.5%

B4: A. oryzae CEL3A beta-glucosidase: beta-glucosidase (SEQ ID NO: 112) recombinantly prepared as described in WO 2004/099228 (protein, listed as Aspergillus oryzae)
chain: MKLGWIEVAALAAASVVSAKDDLAYSPPFYPSPWADGQGEWAEVYKRAVDIVSQMTLTEKVNLTTGTGWQLERCVGQTGSVPRLNIPSLCLQDSPLGIRFSDYNSAFPAGVNVAATWDKTLAYLRGQAMGEEFSDKGIDVQLGPAAGPLGAHPDGGRNWEGFSPDPALTGVLFAETIKGIQDAGVIATAKHYIMNEQEHFRQQPEAAGYGFNVSDSLSSNVDDKTMHELYLWPFADAVRAGVGAVMCSYNQINNSYGCENSETLNKLLKAELGFQGFVMSDWTAHHSGVGAALAGLDMSMPGDVTFDSGTSFWGANLTVGVLNGTIPQWRVDDMAVRIMAAYYKVGRDTKYTPPNFSSWTRDEYGFAHNHVSEGAYERVNEFVDVQRDHADLIRRIGAQSTVLLKNKGALPLSRKEKLVALLGEDAGSNSWGANGCDDRGCDNGTLAMAWGSGTANFPYLVTPEQAIQNEVLQGRGNVFAVTDSWALDKIAAAARQASVSLVFVNSDSGEGYLSVDGNEGDRNNITLWKNGDNVVKTAANNCNNTVVIIHSVGPVLIDEWYDHPNVTGILWAGLPGQESGNSIADVLYGRVNPGAKSPFTWGKTRESYGSPLVKDANNGNGAPQSDFTQGVFIDYRHFDKFNETPIYEFGYGLSYTTFELSDLHVQPLNASRYTPTSGMTEAAKNFGEIGDASEYVYPEGLERIHEFIYPWINSTDLKASSDDSNYGWEDSKYIPEGATDGSAQPRLPASGGAGGNPGLYEDLFRVSVKVKNTGNVAGDEVPQLYVSLGGPNEPKVVLRKFERIHLAPSQEAVWTTTLTRRDLANWDVSAQDWTVTPYPKTIYVGNSSRKLPLQASLPKAQ
conversion of PASC [9, 15]: 1.5±0.3%

B5: T. reesei GH61B polypeptide: GH61B polypeptide having cellulolytic enhancing activity (SEQ ID NO: 16), recombinantly prepared according to WO 2007/089290 A2 (protein, listed as Trichoderma reesei)
chain: MKSCAILAALGCLAGSVLGHGQVQNFTINGQYNQGFILDYYYQKQNTGHFPNVAGWYAEDLDLGFISPDQYTTPDIVCHKNAAPGAISATAAAGSNIVFQWGPGVWPHPYGPIVTYVVECSGSCTTVNKNNLRWVKIQEAGINYNTQVWAQQDLINQGNKWTVKIPSSLRPGNYVFRHELLAAHGASSANGMQNYPQCVNIAVTGSGTKALPAGTPATQLYKPTDPGILFNPYTTITSYTIPGPALWQG
Percent conversion of AVICEL® ([1]; 1 day): 13.6±0.4%
Percent conversion of AVICEL® ([1]; 3 days): 29±2%
Percent conversion of AVICEL® ([1]; 7 days): 44±2%
